Experimental data as given in patent US12492173B2, “Herbicidal substituted N-tetrazolyl aryl carboxamides” (Bayer Aktiengesellschaft, priority 2019, dated 2025).

Tests used:
Assay type in all cases: in vivo
Pharbitis purpurea = test: Post-emergence herbicidal action, PHBPU
Outline: (§1)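 Treatment: post-emergence spray, one-leaf stage. Medium: sandy loam, greenhouse. Carrier: 600–800 l/ha water, 0.2% wetting agent. Read-out: visual % activity at ~3 weeks, untreated plants as reference.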

Echinochloa crus-galli = test: Post-emergence herbicidal action, ECHCG; parameters: key: % herbicidal action vs untreated; 100 = plants died, 0 = like control
Outline: as §1

Abutilon theophrasti = test: Post-emergence herbicidal action, ABUTH; parameters: key: % herbicidal action vs untreated; 100 = plants died, 0 = like control
Outline: as §1

Amaranthus retroflexus [1] = test: Post-emergence herbicidal action, AMARE; parameters: key: % herbicidal action vs untreated; 100 = plants died, 0 = like control
Outline: as §1

Amaranthus retroflexus [2] = test: Pre-emergence herbicidal action, AMARE; conditions: dosage 320 g/ha, scored visually after 3 weeks vs untreated controls (100% = plants have died)
Outline: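 Seeds sown in sandy loam in pots and covered with soil; compounds formulated as WP or EC were sprayed onto the soil surface as aqueous suspension/emulsion at 600 to 800 l/ha water with 0.2% wetting agent. Greenhouse growth; visual damage scored after 3 weeks versus untreated controls (100% = plants died, 0% = like control).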

Matricaria inodora = test: Post-emergence herbicidal action, MATIN; parameters: key: % herbicidal action vs untreated; 100 = plants died, 0 = like control
Outline: as §1

[3] = comparative experiment, post-emergence, 5 g of a.i./ha

SMILES: Cn1nnnc1NC(=O)c1ccc(C(F)(F)F)c(C[S+](C)[O-])c1Cl (racemic) [Example 1-297]
- Herbicidal action against PHBPU (Pharbitis purpurea; [3]): 80
- herbicidal action PHBPU (Pharbitis purpurea; post-emergence, dosage 80 g/ha): 100%
- herbicidal action ECHCG (Echinochloa crus-galli; post-emergence, dosage 80 g/ha): 100%
- herbicidal action ABUTH (Abutilon theophrasti; post-emergence, dosage 80 g/ha): 80%
- herbicidal action AMARE (Amaranthus retroflexus [1]; post-emergence, dosage 80 g/ha): 90%
- herbicidal activity AMARE (Amaranthus retroflexus [2]): 100%
- herbicidal action MATIN (Matricaria inodora; post-emergence, dosage 80 g/ha): 100%

SMILES: Cc1c(C(=O)Nc2nnnn2C)ccc(C(F)(F)F)c1C[S+](C)[O-] (centres unmarked) [Example 1-84]
- herbicidal action PHBPU (Pharbitis purpurea; post-emergence, dosage 80 g/ha): 100%
- herbicidal action ECHCG (Echinochloa crus-galli; post-emergence, dosage 80 g/ha): 90%
- herbicidal action ABUTH (Abutilon theophrasti; post-emergence, dosage 80 g/ha): 90%
- herbicidal action AMARE (Amaranthus retroflexus [1]; post-emergence, dosage 80 g/ha): 90%
- herbicidal action MATIN (Matricaria inodora; post-emergence, dosage 80 g/ha): 100%

SMILES: Cc1c(C(=O)Nc2nnnn2C)ccc(C(F)(F)F)c1CS(C)(=O)=O [Example 1-85]
- herbicidal action PHBPU (Pharbitis purpurea; Dosage 80 g/ha): 100
- herbicidal action ECHCG (Echinochloa crus-galli; Dosage 80 g/ha): 90
- herbicidal action ABUTH (Abutilon theophrasti; Dosage 80 g/ha): 90
- herbicidal action AMARE (Amaranthus retroflexus [1]; Dosage 80 g/ha): 90
- herbicidal activity AMARE (Amaranthus retroflexus [2]): 100%
- herbicidal action MATIN (Matricaria inodora; Dosage 80 g/ha): 100

SMILES: CCSCc1c(C(F)(F)F)ccc(C(=O)Nc2nnnn2C)c1C [Example 1-86]
- herbicidal action PHBPU (Pharbitis purpurea; post-emergence, dosage 80 g/ha): 90%
- herbicidal action ECHCG (Echinochloa crus-galli; post-emergence, dosage 80 g/ha): 80%
- herbicidal action ABUTH (Abutilon theophrasti; post-emergence, dosage 80 g/ha): 80%
- herbicidal action AMARE (Amaranthus retroflexus [1]; post-emergence, dosage 80 g/ha): 80%
- herbicidal activity AMARE (Amaranthus retroflexus [2]): 100%
- herbicidal action MATIN (Matricaria inodora; post-emergence, dosage 80 g/ha): 100%

SMILES: CSCc1c(C(F)F)ccc(C(=O)Nc2nnnn2C)c1C [Example 1-107, 4-(difluoromethyl)-2-methyl-3-[(methylsulfanyl)methyl]-N-(1-methyl-1H-tetrazol-5-yl)benzamide]
- herbicidal action PHBPU (Pharbitis purpurea; Dosage 80 g/ha): 80
- herbicidal action ECHCG (Echinochloa crus-galli; Dosage 80 g/ha): 90
- Herbicidal action against ECHCG (Echinochloa crus-galli; [3]): 80
- herbicidal action ABUTH (Abutilon theophrasti; Dosage 80 g/ha): 80
- herbicidal action AMARE (Amaranthus retroflexus [1]; Dosage 80 g/ha): 90
- herbicidal activity AMARE (Amaranthus retroflexus [2]): 100%
- herbicidal action MATIN (Matricaria inodora; Dosage 80 g/ha): 90

SMILES: Cc1c(C(=O)Nc2nnnn2C)ccc(C(F)F)c1CS(C)(=O)=O [Example 1-109]
- herbicidal action PHBPU (Pharbitis purpurea; Dosage 80 g/ha): 100
- herbicidal action ECHCG (Echinochloa crus-galli; Dosage 80 g/ha): 100
- herbicidal action ABUTH (Abutilon theophrasti; Dosage 80 g/ha): 90
- herbicidal action AMARE (Amaranthus retroflexus [1]; Dosage 80 g/ha): 100
- Herbicidal action against AMARE (Amaranthus retroflexus [1]; [3]): 100
- herbicidal activity AMARE (Amaranthus retroflexus [2]): 100%
- herbicidal action MATIN (Matricaria inodora; Dosage 80 g/ha): 100

SMILES: COc1c(C(=O)Nc2nnnn2C)ccc(C(F)(F)F)c1CSC [Example 1-134]
- herbicidal action PHBPU (Pharbitis purpurea; Dosage 80 g/ha): 100
- Herbicidal action against PHBPU (Pharbitis purpurea; post-emergence, dosage 80 g/ha): 90
- herbicidal action ECHCG (Echinochloa crus-galli; Dosage 80 g/ha): 100
- Herbicidal action against ECHCG (Echinochloa crus-galli; post-emergence, dosage 80 g/ha): 90
- herbicidal action ABUTH (Abutilon theophrasti; Dosage 80 g/ha): 100
- herbicidal action AMARE (Amaranthus retroflexus [1]; Dosage 80 g/ha): 100
- Herbicidal action against AMARE (Amaranthus retroflexus [1]; post-emergence, dosage 80 g/ha): 100
- herbicidal activity AMARE (Amaranthus retroflexus [2]): 100%
- herbicidal action MATIN (Matricaria inodora; Dosage 80 g/ha): 100
- Herbicidal action against MATIN (Matricaria inodora; [3]): 90
- Herbicidal action against MATIN (Matricaria inodora; post-emergence, dosage 80 g/ha): 100

SMILES: CSCc1c(C(F)(F)F)ccc(C(=O)Nc2nnnn2C)c1SC [Example 1-161]
- herbicidal action PHBPU (Pharbitis purpurea; Dosage 80 g/ha): 90
- herbicidal action ECHCG (Echinochloa crus-galli; Dosage 80 g/ha): 90
- herbicidal action ABUTH (Abutilon theophrasti; Dosage 80 g/ha): 90
- herbicidal action AMARE (Amaranthus retroflexus [1]; Dosage 80 g/ha): 100
- herbicidal activity AMARE (Amaranthus retroflexus [2]): 100%
- herbicidal action MATIN (Matricaria inodora; Dosage 80 g/ha): 100

SMILES: Cc1ccc(C(=O)Nc2nnnn2C)c(Cl)c1CS(C)(=O)=O [Example 1-289]
- herbicidal action PHBPU (Pharbitis purpurea; Dosage 80 g/ha): 90
- herbicidal action ECHCG (Echinochloa crus-galli; Dosage 80 g/ha): 100
- herbicidal action AMARE (Amaranthus retroflexus [1]; Dosage 80 g/ha): 100
- herbicidal activity AMARE (Amaranthus retroflexus [2]): 100%
- herbicidal action MATIN (Matricaria inodora; Dosage 80 g/ha): 100

SMILES: CCCn1nnnc1NC(=O)c1ccc(C(F)(F)F)c(CS(C)(=O)=O)c1OC [Example 3-136]
- herbicidal action PHBPU (Pharbitis purpurea; Dosage 80 g/ha): 90
- herbicidal action ECHCG (Echinochloa crus-galli; Dosage 80 g/ha): 100
- herbicidal action ABUTH (Abutilon theophrasti; Dosage 80 g/ha): 100
- herbicidal action AMARE (Amaranthus retroflexus [1]; Dosage 80 g/ha): 100
- herbicidal activity AMARE (Amaranthus retroflexus [2]): 100%

SMILES: CCCn1nnnc1NC(=O)c1ccc(C(F)F)c(C[S+]([O-])CC)c1Cl (centres unmarked) [Example 3-324]
- herbicidal action PHBPU (Pharbitis purpurea; Dosage 80 g/ha): 100
- herbicidal action ECHCG (Echinochloa crus-galli; Dosage 80 g/ha): 100
- herbicidal action ABUTH (Abutilon theophrasti; Dosage 80 g/ha): 100
- herbicidal activity AMARE (Amaranthus retroflexus [2]): 100%

SMILES: CCCn1nnnc1NC(=O)c1ccc(C(F)(F)F)c(CSC)c1Br [Example 3-380]
- herbicidal action PHBPU (Pharbitis purpurea; Dosage 80 g/ha): 90
- herbicidal action ECHCG (Echinochloa crus-galli; Dosage 80 g/ha): 90
- herbicidal action ABUTH (Abutilon theophrasti; Dosage 80 g/ha): 80
- herbicidal activity AMARE (Amaranthus retroflexus [2]): 100%
- herbicidal action MATIN (Matricaria inodora; Dosage 80 g/ha): 100
